The subject of one assay is NFκB. In words: Experiment 3: NFκB-driven 3-EnhTK-Luc reporter in CV1 cells with GR1. As to conditions: for % Control: Blank = 100. Type of assay: cell-based, African Green Monkey. The source says:
(§1) Two plasmid constructs were introduced by standard calcium phosphate precipitation of DNA followed by glycerol shock (Ausubel F M, Brent R, Kingston D D, Moore J G et al Current protocols in molecular biology 1994 Greene Publishing Associates/Wiley-Interscience, New York, N.Y.) using a transformed African Green Monkey kidney cell line (CV1) (Schneikert J, Peterziel H, Defossez P-A, Klocker H, de Launoit Y and Cato A C B Androgen receptor-Ets protein interaction is a novel mechanism for steroid hormone-mediated down-modulation of matrix metalloproteinase expression, Journal of Biological Chemistry. Vol 271(39) (pp 23907-23913), 1996).
This experiment was intended to show the effect of compounds I on a mediator of the immune response, nuclear factor—κB (NF-κB).
The following two plasmids were included into CV1 cells described above— • (a) GR1 as described above at 2 ug per 5×10^5 cells, and • (b) a plasmid designated 3-EnhTK-Luc (at 0.5 ug per 5×10^5 cells) which contains a transcription site that is activated by NFκB.
The blank represented the inclusion of these two plasmids alone; the relatively high value was caused by (i) the high level of serum in the culture, and (ii) the associated stress that the cells underwent during the […]—both of which upregulate NFκB. There was also a related relatively low activation of TNF (at 4 ng/ml) above a serum containing blank in the experiment. TNF was tumour necrosis factor alpha.

Assay [1] concerns collagenase I promoter. Description: Experiment 1: collagenase I promoter (-73/+63)-luciferase in CV1 cells, no receptor plasmid (Empty). Type of assay: cell-based, African Green Monkey. To be noted: for Raw counts (Empty) / % control (Empty): no receptor; for % control (Empty): Blank = 100.
Description: as §1
(§2) Accordingly, the following two plasmids were included into CV1 cells described above — • (a) Either of GR1 or pSG5ARF containing glucocorticoid or androgen receptor (AR) respectively, both at 2 ug per 5×10^5 cells, driven by the Rous sarcoma virus promoter, and • (b) a plasmid containing the −73/+63 portion of the collagenase I promoter linked to luciferase gene at 8 ug per 5×10^5 cells.
(§3) CPII was compound II above, clobuzarit.

The next assay concerns pro-MMP-1. Description: Experiment 5: immunoblot of pro-MMP-1 in rheumatoid fibroblasts. Type of assay: cell-based, human. To be noted: 36 hours, 10 ng/ml TPA plus 5×10^-7M substance, compared to TPA alone (lane 5). The method, then:
Rheumatoid fibroblasts were cultured from synovium obtained from the knee joint of a patient with rheumatoid arthritis. Cells were cultured in monolayer with DMEM tissue culture medium (Gibco) with the inclusion of 5% v/v charcoal stripped serum in 75 cm^2 flasks. The cells were treated for 36 hours with the addition of 10 ng/ml TPA (phorbol ester) plus 5×10^−7M thyroid hormone, Compound II or Compound III. TPA and drugs were added at time zero and at 30 hours, the TPA addition ensured phosphorylation of c-jun.
After 36 hours, cells were lysed in phosphate buffered saline (PBS) containing protease inhibitors and 0.1% Triton-X-100, and then boiled for 5 minutes in non-reducing gel loading buffer. Samples of cell lysate corresponding to equal cell number were loaded onto a 12.5% SDS polyacrylamide gel, and electrophoresis using a Bio-Rad™, (Bio-Rad Laboratories, California USA) Mini Protean II cell was performed at approximately 100V for one hour.
Transfer of proteins to nitrocellulose membrane was performed using a Bio-Rad Mini Trans-Blot transfer cell.
Immunoblotting was performed using polyclonal rabbit anti-human phosphorylation specific (set 73) c-jun (cat. No 06659, Upstate Biotechnology), or MMP-1 (cat. No. RDI-MMP1Habr, Research Diagnostics) antibodies diluted 1:1000 in Tris buffered saline+3% fat free milk powder. […]

For the next assay, the target named is T1, glucocorticoid receptor (Homo sapiens, UniProt P04150).
T1 construct: expressed in transfected cells; host or cells: CV1 (transformed African Green Monkey kidney cell line)
T1 sequence (P04150 1-777): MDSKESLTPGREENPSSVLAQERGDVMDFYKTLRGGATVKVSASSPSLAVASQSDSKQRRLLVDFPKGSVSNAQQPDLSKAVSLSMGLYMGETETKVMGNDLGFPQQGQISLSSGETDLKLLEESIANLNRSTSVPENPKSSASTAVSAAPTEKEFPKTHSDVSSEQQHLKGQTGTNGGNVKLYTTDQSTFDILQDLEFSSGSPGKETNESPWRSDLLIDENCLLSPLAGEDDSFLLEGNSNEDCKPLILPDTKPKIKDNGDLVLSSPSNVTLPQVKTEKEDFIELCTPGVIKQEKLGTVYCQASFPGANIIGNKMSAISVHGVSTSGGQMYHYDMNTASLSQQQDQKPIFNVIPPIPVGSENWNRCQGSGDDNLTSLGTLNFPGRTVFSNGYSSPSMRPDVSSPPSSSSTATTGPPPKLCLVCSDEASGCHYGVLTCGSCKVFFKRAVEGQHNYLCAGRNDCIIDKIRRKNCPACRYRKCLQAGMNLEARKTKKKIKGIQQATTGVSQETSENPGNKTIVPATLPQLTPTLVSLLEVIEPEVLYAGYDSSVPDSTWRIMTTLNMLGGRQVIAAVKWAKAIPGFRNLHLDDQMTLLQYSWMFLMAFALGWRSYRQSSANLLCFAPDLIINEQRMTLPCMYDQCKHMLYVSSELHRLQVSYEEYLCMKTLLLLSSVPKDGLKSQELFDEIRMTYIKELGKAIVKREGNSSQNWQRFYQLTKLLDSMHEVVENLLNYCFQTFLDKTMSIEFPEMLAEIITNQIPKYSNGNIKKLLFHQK
In words: Experiment 2: PGL3MMTV-luciferase transactivation in CV1 cells with glucocorticoid receptor (GR1). As to conditions: for % control (GR1): Blank = 100. Type of assay: cell-based.
Description: as §1
This experiment was intended to investigate the activation of androgen and corticosteroid receptors by compound I.
CPII was compound II above, clobuzarit, which was used at 10^−7M.

Assay [2] has as its system collagenase I promoter. In words: Experiment 1: collagenase I promoter (-73/+63)-luciferase in CV1 cells transfected with GR1 (glucocorticoid receptor). Type of assay: cell-based, African Green Monkey. As to conditions: for % control (GR1): Blank = 100.
Description: as §1, §2, §3

Where [3] appears, read: substance added alone, TNF 4 ng/ml.
The mark [4] stands for this setting: substance added with TNF 4 ng/ml.
Setting [5] is: substance added with TPA 75 ng/ml.
Where [6] appears, read: CPII 10^-7M together with Dex 10^-7M.
Setting [7] is: substance added with TPA 75 ng/ml, Dex 10^-7M.

SMILES strings stand for the structures.

Consider `CC(C)(OCc1ccc(-c2ccc(Cl)cc2)cc1)C(=O)O` [Compound II, 1-[4-(4-chlorophenyl)benzyloxy]-1-methylpropionic acid], for which the figures for the Raw Counts in the assay on NFκB (setting [3]) and in the assay with NFκB (setting [4]) were 75812 counts and 135886 counts, respectively. In addition, the “% Control” value came to 127% in the assay with NFκB (setting [3]) and 228% in the assay with NFκB (setting [4]). Further, the “upregulation of transcriptional activity by NFκB, in words” value in the assay with NFκB (versus background value) was “not able to upregulate transcriptional activity by NFκB”. For the same compound, in the assay with NFκB (with TNF), the “inhibitory effect on NFκB transcription, in words” value is listed as “lack of inhibitory effect”. In the assay with collagenase I promoter [1] (TPA stimulated and unstimulated, Empty), the “collagenase I (MMP) promoter activity in the absence of either receptor, in words” value was “able to reduce the level”. Further, the “Raw counts (Empty)” value in the assay with collagenase I promoter [1] (luciferase, substance added alone, TPA 75 ng/ml) came to 1882 counts; in the assay with collagenase I promoter [1] (setting [5]) it was 2747 counts. Besides, the “% control (Empty)” value amounted to 78% in the assay on collagenase I promoter [1] (substance added alone) and 115% in the assay with collagenase I promoter [1] (setting [5]). In the assay on pro-MMP-1, the “amount of pro-MMP-1, band intensity” value is “lower intensity”. Besides, the “activation of glucocorticoid receptor-driven transcription, in words” value at glucocorticoid receptor (10^-7M, compared with Dex) is “negligible activity”. Also, the “Raw counts (GR1)” value is listed as 748249 counts on glucocorticoid receptor (setting [6]); 3272 counts at glucocorticoid receptor (substance alone at 10^-7M); 6151 counts with collagenase I promoter [2] (substance added alone, TPA 75 ng/ml); 39968 counts with collagenase I promoter [2] (setting [7]). Also, the “% control (GR1)” value on glucocorticoid receptor (setting [6]) was 20965%; on glucocorticoid receptor (substance alone at 10^-7M), 92%; in the assay with collagenase I promoter [2] (substance added alone), 48%; in the assay with collagenase I promoter [2] (setting [7]) it was 311%. Further, the “collagenase I activation, in words (GR1)” value with collagenase I promoter [2] (TPA-stimulated, glucocorticoid receptor) was “able to down regulate collagenase I activation”.

The values above are taken from US20070213402A1, “Compounds which interact with the thyroid hormone receptor for the treatment of fibrotic disease” (priority 1998, published 2007).
